Experimental data taken from patent US9815847B2 (Icahn School of Medicine at Mount Sinai, priority 2013, dated 2017).

Key:
PIM2 = molecular target: T1, PIM2 (Homo sapiens, UniProt Q9P1W9); assay: Kinase inhibition assay; type: biochemical; settings: 10 μM ATP; 5-dose IC50 mode
T1 construct: purchased Reaction Biology Corporation
Description: Kinase assays were performed at Reaction Biology Corporation. To a freshly prepared buffer solution was added the target kinase at a concentration of […]. The contents were mixed gently, and then compound 8h dissolved in DMSO was added to the reaction mixture in the appropriate concentration. The mixture was incubated at room temperature for 30 min. prior to addition of ATP to initiate the reaction. Compound 8h was tested in a 5-dose IC50 mode with 10-fold serial dilutions starting at 10 μM. For each of the kinases, a control compound in a 10-dose IC50 mode with 3-fold serial dilutions starting at 20 μM. The control compounds were GW5074 (3-(3,5-dibromo-4-hydroxy-benzylidene)-5-iodo-1,3-dihydro-indol-2-one) for BRAF, CK2a and RAF1, D4476 (4-[4-(2,3-dihydro-1,4-benzodioxin-6-yl)-5-(2-pyridinyl)-1H-imidazol-2-yl]benzamide) for CK1d; Wee1 inhibitor (4-(2-chlorophenyl)-9-hydroxypyrrolo[3,4-c]carbazole-1,3-(2H,6H)-dione) for WEE1 and saturosporine for other kinases. Reaction was carried out at 10 μM ATP concentration.

ABL1 (Q252H) = molecular target: T2, ABL1 (Q252H) (Homo sapiens, UniProt P00519, Q252H); assay: Inhibition of ABL mutants, kinase assay; type: biochemical; settings: 10 μM ATP; 5-dose IC50 mode
T2 construct: purchased Reaction Biology Corporation
Description: (§1) Kinase assays were performed at Reaction Biology Corporation. To a freshly prepared buffer solution was added the target kinase at a concentration of […]. The contents were mixed gently, and then compound (8h) dissolved in DMSO was added to the reaction mixture in the appropriate concentration. The mixture was incubated at room temperature for 30 min. prior to addition of ATP to initiate the reaction. Compound (8h) was tested in a 5-dose IC50 mode with 10-fold serial dilutions starting at 10 μM. Staurosporine was used as a control compound in a 10-dose IC50 mode with 3-fold serial dilutions starting at 20 μM. Reaction was carried out at 10 μM ATP concentration.

ABL1 (T315I) = molecular target: T3, ABL1 (T315I) (Homo sapiens, UniProt P00519, T315I); assay: Inhibition of ABL mutants, kinase assay; type: biochemical; settings: 10 μM ATP; 5-dose IC50 mode
T3 construct: purchased Reaction Biology Corporation
Description: as §1

ABL1 (G250E) = molecular target: T4, ABL1 (G250E) (Homo sapiens, UniProt P00519, G250E); assay: Inhibition of ABL mutants, kinase assay; type: biochemical; settings: 10 μM ATP; 5-dose IC50 mode
T4 construct: purchased Reaction Biology Corporation
Description: as §1

ABL2/ARG = molecular target: T5, ABL2/ARG (Homo sapiens, UniProt P42684); assay: Inhibition of ABL mutants, kinase assay; type: biochemical; settings: 10 μM ATP; 5-dose IC50 mode
T5 construct: purchased Reaction Biology Corporation
Description: as §1

ABL1 (H396P) = molecular target: T6, ABL1 (H396P) (Homo sapiens, UniProt P00519, H396P); assay: Inhibition of ABL mutants, kinase assay; type: biochemical; settings: 10 μM ATP; 5-dose IC50 mode
T6 construct: purchased Reaction Biology Corporation
Description: as §1

ABL1 (Y253F) = molecular target: T7, ABL1 (Y253F) (Homo sapiens, UniProt P00519, Y253F); assay: Inhibition of ABL mutants, kinase assay; type: biochemical; settings: 10 μM ATP; 5-dose IC50 mode
T7 construct: purchased Reaction Biology Corporation
Description: as §1

ABL1 (E255K) = molecular target: T8, ABL1 (E255K) (Homo sapiens, UniProt P00519, E255K); assay: Inhibition of ABL mutants, kinase assay; type: biochemical; settings: 10 μM ATP; 5-dose IC50 mode
T8 construct: purchased Reaction Biology Corporation
Description: as §1

ABL1 (M351T) = molecular target: T9, ABL1 (M351T) (Homo sapiens, UniProt P00519, M351T); assay: Inhibition of ABL mutants, kinase assay; type: biochemical; settings: 10 μM ATP; 5-dose IC50 mode
T9 construct: purchased Reaction Biology Corporation
Description: as §1

U937 = assay: Cytotoxicity assay, dose response end point; type: cell-based; settings: Homo sapiens, U-937; U937, histiocytic lymphoma; 96 h
Description: (§2) The following tumor cell lines were tested using a dose response end point assay system with compound (8h). The cells were grown in either DMEM or RPMI supplemented with 10% fetal bovine serum and 1 unit/mL Penicillin-Streptomycin solution. The tumor cells were plated into 6-well dishes at a cell density of 1.0×10^5 cells/mL/well and the test compound was added 24 h. later at various concentrations. Cell counts were determined from duplicate wells after 96 h. of treatment. The total number of viable cells was determined by trypan blue exclusion.

PANC 03.27 = assay: Cytotoxicity assay, dose response end point; type: cell-based; settings: Homo sapiens, PANC-03-27; PANC 03.27, Pancreatic adenocarcinoma; 96 h
Description: as §2

HCT-116 = assay: Cytotoxicity assay, dose response end point; type: cell-based; settings: Homo sapiens; HCT-116, colon cancer; 96 h
Description: as §2

CEM/C2 = assay: Cytotoxicity assay, dose response end point; type: cell-based; settings: Homo sapiens; CEM/C2, T-cell leukemia; 96 h
Description: as §2

ASPC-1 = assay: Cytotoxicity assay, dose response end point; type: cell-based; settings: Homo sapiens, ASPC1; ASPC-1, pancreatic adenocarcinoma; 96 h
Description: as §2

DU145 [1] = assay: Cytotoxicity assay, dose response end point; type: cell-based; settings: Homo sapiens, DU-145; DU145, prostate carcinoma; 96 h
Description: as §2

Z138C = assay: Cytotoxicity assay, dose response end point; type: cell-based; settings: mantle cell lymphoma, 96 h
Description: as §2

HCT-15 = assay: Cytotoxicity assay, dose response end point; type: cell-based; settings: Homo sapiens; HCT-15, Dukes' type C colorectal adenocarcinoma; 96 h
Description: as §2

A431 = assay: Cytotoxicity assay, dose response end point; type: cell-based; settings: Homo sapiens, A-431; A431, epidermoid carcinoma; 96 h
Description: as §2

U266 = assay: Cytotoxicity assay, dose response end point; type: cell-based; settings: Homo sapiens, U-266; U266, multiple myeloma; 96 h
Description: as §2

HPAF-II = assay: Cytotoxicity assay, dose response end point; type: cell-based; settings: Homo sapiens, pancreatic adenocarcinoma, 96 h
Description: as §2

HL-60 = assay: Cytotoxicity assay, dose response end point; type: cell-based; settings: Homo sapiens; HL-60, promyelocytic leukaemia; 96 h
Description: as §2

CEM = assay: Cytotoxicity assay, dose response end point; type: cell-based; settings: Homo sapiens, CCRF-CEM, T-cell leukemia, 96 h
Description: as §2

DU145 [2] = assay: Cytotoxicity on DU145 cancer cell line; type: cell-based; settings: Homo sapiens, DU-145; DU145 prostate cancer; 96 h; 0.01-100 μM
Description: The effect of the compounds described herein on tumor cells was determined by the assay described by Latham et al., Oncogene 12:827-837 (1996). Tumor cells K562 (chronic myelogenous leukemia; leukemia cell line +ve for Bcr-Abl) or DU145 (prostate cancer) were plated in 12-well dishes at a cell density of 2.5×10^4 cells per well. The plated cells were treated 24 h. later with a DMSO solution of a compound as described herein at multiple concentrations ranging from 0.01 μM to 100 μM. The plates were examined 96 h. later under an inverted microscope, Olympus CK-2 using a 10× objective, and compound activity was noted by physical observation. When necessary, the total number of viable cells was determined by trypsinizing the wells and counting the number of viable cells, as determined by trypan blue exclusion, using a hemacytometer.

T5 sequence (P42684 whole entry): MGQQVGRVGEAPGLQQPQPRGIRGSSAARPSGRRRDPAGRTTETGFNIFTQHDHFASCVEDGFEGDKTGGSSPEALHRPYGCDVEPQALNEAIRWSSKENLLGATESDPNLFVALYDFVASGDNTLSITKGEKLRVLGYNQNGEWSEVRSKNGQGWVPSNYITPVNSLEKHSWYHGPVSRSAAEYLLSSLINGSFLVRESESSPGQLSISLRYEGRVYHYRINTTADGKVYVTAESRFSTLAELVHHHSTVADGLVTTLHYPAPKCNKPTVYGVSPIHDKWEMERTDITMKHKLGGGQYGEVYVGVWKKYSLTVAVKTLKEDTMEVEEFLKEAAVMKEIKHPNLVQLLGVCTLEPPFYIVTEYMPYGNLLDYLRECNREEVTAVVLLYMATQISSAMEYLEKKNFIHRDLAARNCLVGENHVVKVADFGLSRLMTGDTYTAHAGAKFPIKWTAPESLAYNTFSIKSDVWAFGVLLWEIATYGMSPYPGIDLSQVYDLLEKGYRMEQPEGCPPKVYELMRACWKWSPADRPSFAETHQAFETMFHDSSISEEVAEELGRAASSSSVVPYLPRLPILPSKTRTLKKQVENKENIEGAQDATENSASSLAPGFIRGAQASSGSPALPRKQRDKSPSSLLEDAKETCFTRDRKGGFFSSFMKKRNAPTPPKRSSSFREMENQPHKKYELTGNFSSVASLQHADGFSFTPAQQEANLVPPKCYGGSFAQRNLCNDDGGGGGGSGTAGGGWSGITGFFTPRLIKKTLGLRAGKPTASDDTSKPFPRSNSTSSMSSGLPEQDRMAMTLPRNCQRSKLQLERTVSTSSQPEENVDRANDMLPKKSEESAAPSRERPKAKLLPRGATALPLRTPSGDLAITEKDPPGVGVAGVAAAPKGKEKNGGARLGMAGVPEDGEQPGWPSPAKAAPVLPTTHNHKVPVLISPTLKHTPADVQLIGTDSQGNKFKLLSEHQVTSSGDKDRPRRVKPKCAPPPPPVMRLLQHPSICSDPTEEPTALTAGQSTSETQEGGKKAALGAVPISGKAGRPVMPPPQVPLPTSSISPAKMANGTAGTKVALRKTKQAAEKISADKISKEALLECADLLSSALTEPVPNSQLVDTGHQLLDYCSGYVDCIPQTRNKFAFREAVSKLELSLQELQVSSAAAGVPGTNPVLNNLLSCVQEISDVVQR
T1 sequence (Q9P1W9 whole entry): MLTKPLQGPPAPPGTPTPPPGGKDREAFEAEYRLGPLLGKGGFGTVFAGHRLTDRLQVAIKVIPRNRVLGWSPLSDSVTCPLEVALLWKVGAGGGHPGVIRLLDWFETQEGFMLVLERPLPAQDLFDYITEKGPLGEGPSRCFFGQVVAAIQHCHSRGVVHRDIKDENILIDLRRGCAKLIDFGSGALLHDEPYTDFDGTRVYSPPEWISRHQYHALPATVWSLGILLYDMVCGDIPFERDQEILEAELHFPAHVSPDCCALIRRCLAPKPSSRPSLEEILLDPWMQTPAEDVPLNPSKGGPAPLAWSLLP

**Q.** What does the source list for `CN1CCN(c2ccc(Nc3ncc(/C=C/C#N)c(NC4CCCC4)n3)cc2)CC1` [Compound 8h, 3-{4-Cyclopentylamino-2-[4-(4-methylpiperazin-1-yl)phenylamino]pyrimidin-5-yl}acrylonitrile]?
**A.** IC50 (PIM2): > 1000 nM; IC50 (ABL1 (Q252H)): < 100 nM; IC50 (ABL1 (T315I)): < 100 nM; IC50 (ABL1 (G250E)): < 100 nM; IC50 (ABL2/ARG): < 100 nM; IC50 (ABL1 (H396P)): < 100 nM; IC50 (ABL1 (Y253F)): < 100 nM; IC50 (ABL1 (E255K)): < 100 nM; IC50 (ABL1 (M351T)): < 100 nM; GI50 (U937): 100 nM; GI50 (PANC 03.27): 3000 nM; GI50 (HCT-116): 500 nM; GI50 (CEM/C2): 1500 nM; GI50 (ASPC-1): > 5000 nM; GI50 (DU145 [1]): < 500 nM; GI50 (Z138C): 3000 nM; GI50 (HCT-15): 30 nM; GI50 (A431): 100 nM; GI50 (U266): 1000 nM; GI50 (HPAF-II): 5000 nM; GI50 (HL-60): 500 nM; GI50 (CEM): 1500 nM; IC50 (DU145 [2]): < 1000 nM
